Measured values taken from US8394971B2, “Indole derivatives as selective androgen receptor modulators (SARMS)” (Janssen Pharmaceutica N.V., priority 2004, dated 2013).
pIC50: −log10 of the molar value. Values joined by “and” are separate entries in the source; they are usually repeats but may differ in a detail not shown here. Identical values can stand only once.

How the values were obtained:
[1] = biological target: T1, androgen receptor (adenovirus AdEasy+rAR in L929 cells) (Rattus norvegicus, UniProt P15207); experiment: L929 Androgen Receptor Functional Assay, Adenovirus Transduction; type: cell-based; conditions: for % Activity: L929 agonist testing
T1 construct: expressed in transfected cells
T1 sequence (P15207 1-902): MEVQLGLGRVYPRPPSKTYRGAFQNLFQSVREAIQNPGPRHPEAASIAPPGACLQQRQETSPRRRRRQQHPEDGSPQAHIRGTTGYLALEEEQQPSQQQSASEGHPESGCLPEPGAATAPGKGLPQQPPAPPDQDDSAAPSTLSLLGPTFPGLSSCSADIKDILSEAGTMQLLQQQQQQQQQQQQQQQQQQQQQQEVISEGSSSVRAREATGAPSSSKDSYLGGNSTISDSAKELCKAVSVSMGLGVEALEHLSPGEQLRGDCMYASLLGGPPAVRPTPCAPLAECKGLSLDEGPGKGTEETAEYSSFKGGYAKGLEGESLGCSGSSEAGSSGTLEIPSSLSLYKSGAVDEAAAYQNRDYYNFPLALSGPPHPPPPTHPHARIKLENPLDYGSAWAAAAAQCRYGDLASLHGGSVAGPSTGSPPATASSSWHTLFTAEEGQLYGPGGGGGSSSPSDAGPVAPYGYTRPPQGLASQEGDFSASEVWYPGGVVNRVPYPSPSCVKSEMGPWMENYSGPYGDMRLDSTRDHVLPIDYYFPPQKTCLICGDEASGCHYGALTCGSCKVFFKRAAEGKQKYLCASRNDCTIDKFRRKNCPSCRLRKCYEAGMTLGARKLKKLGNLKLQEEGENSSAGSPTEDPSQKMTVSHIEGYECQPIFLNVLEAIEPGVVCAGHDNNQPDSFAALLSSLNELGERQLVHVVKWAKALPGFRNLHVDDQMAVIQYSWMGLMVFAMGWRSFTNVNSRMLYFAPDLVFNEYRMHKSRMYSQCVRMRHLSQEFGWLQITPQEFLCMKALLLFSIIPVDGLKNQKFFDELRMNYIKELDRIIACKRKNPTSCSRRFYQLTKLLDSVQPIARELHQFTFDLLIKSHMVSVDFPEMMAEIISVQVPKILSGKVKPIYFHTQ
Description: L929 cells were plated in 96-well plates at 20,000 cells per well, in DMEM/F12 (GIBCO) containing 10% (v/v) charcoal-treated fetal bovine serum (Hyclone) and lacking phenol red. The plates were then incubated overnight at 37° C. in 5% (v/v) humidified CO2.
Test compound dilutions were prepared in 100% (v/v) DMSO, if necessary. Each dilution was made to 1250× the final desired assay concentration.
First, 2 mL of DMEM/F12 lacking phenol red was pipetted into the wells of a 2-mL 96-well assay block. Next, 4 μL of the 1250× test compound dilutions were pipetted into each well of the assay block. The mixtures within the well were then carefully mixed by pipette.
In a 15 mL or 50 mL sterile centrifuge tube, a 2.5 nM (2.5×) dilution of R1881 (methyl-trienolone) in DMEM/F12 lacking phenol red was prepared.
In a second 15 mL or 50 mL centrifuge tube a solution containing an equal volume of DMEM to the first and an equal volume of 100% (v/v) DMSO to the volume of R1881 used in the first tube was prepared.
In a 15 mL or 50 mL sterile centrifuge tube, a dilution in DMEM/F12 of the adenovirus AdEasy+rAR at an moi of 1:500 per well was prepared.
The medium was removed from the 96-well plates by inversion and dried, inverted, very briefly. As soon as possible after medium removal, 40 μL of the diluted unlabeled test compound was added to each well, in duplicate. To each well designated for antagonist testing was added 40 μL of the 2.5 nM R1881 dilution to the wells for antagonist testing. To each well designated for agonist testing was added 40 μL of the DMSO dilution. Then 20 μL of the diluted adenovirus were added to all wells. The plates were incubated for 48 hours at 37° C. in 5% (v/v) humidified CO2.
To each well was added 100 μL of Steady-Glo luciferase assay substrate (Promega) and the plates were placed on a rotary shaker for 1 min. The plates were then incubated at room temperature in the dark for one hour. The contents of each well were then transferred to a white microtiter plate (Packard) and read on a Luminoskan Ascent (Thermo Lab Systems).
L929 AR percent activity was determined by testing dilutions of the test compound using a concentration of 3000 nM unless otherwise noted. L929 percent inhibition was determined by testing dilutions of the test compound using a concentration of 3000 nM. […] Luciferase activity per well were measured and EC50s and IC50s determined by linear regression.

[2] = biological target: T2, androgen receptor (adenovirus AdEasy+rAR in COS-7 cells) (Rattus norvegicus, UniProt P15207); experiment: COS-7 Whole-Cell Androgen Receptor Binding Assay, Adenovirus Transduction
T2 construct: expressed in transfected cells
T2 sequence (P15207 1-902): T1 sequence (P15207 1-902)
Description: COS-7 cells were plated in 96-well plates at 20,000 cells per well, in a solution of DMEM/F12 (GIBCO) containing 10% (v/v) charcoal-treated fetal bovine serum (Hyclone) and lacking phenol red. The cells were then incubated overnight at 37° C. in 5% (v/v) humidified CO2.
Test compound solutions were prepared by diluting the test compound in 100% (v/v) DMSO, if necessary.
Next, 1 mL of DMEM/F12 lacking phenol red was pipetted into each of the wells of a 2-mL 96-well assay block. […] The wells were carefully mixed by pipette.
In a 15 mL or 50 mL sterile centrifuge tube, a dilution in DMEM/F12 of the adenovirus AdEasy+rAR at a moi of 1:50 per well was prepared.
The medium was removed from the 96-well plates by inversion and the plates dried very briefly, inverted, on a sterile towel. As soon as possible after medium removal, 40 μL of the diluted test compound was added to each well, in duplicate. […] The plates were then incubated for 48 hours at 37° C. in 5% (v/v) humidified CO2.
The medium was removed from the above incubated plates by inversion and dried. Each well was then washed with 0.35 mL of 1×PBS. The PBS was then removed from the plates by inversion and the plates dried.
To each well was then added 50 μL of 0.5% (v/v) Triton X-100 (Sigma) in 1×PBS and the plates placed on a rotary shaker for 5 min. The contents of each well were then transferred to an OptiPlate-96 (Packard) scintillation plate. To each well was then added 0.2 mL of Microscint-20 (Packard) and the wells counted on a TopCount (Packard).
[…] Counts per well were measured and percents of inhibition determined. […] Counts per well were measured and IC50s determined by linear regression.

[3] = test system: testosterone-enhanced ventral prostate and seminal vesicle weights in castrated male Sprague Dawley rats; experiment: Ventral Prostate and Seminal Vesicle Weight In Vivo Assay; parameters: species or system rat; conditions: immature castrated rats; once daily for five days, usually orally at 40 mg/kg, with testosterone propionate 2 mg/kg s.c.
Description: Immature (approximately 50 g) castrated male Sprague Dawley rats (Charles River) were treated once daily for five days with test compound (usually given orally at 40 mg/kg in a volume of 0.3 mL, in 30% cyclodextrin or 0.5% methylcellulose vehicle) and with testosterone propionate (given subcutaneously by injection at the nape of the neck at 2 mg/kg, in a volume of 0.1 mL in sesame oil). On the sixth day, the rats were euthanized by asphyxiation in carbon dioxide. Ventral prostates and seminal vesicles were removed and their wet weights determined.
A test compound was said to be “active” if the non weight adjusted prostate weight was ≦40 mg or the % Inhibition prostate weight, body weight adjusted was ≧40% @2 mg/day dosage.

[4] = COS binding, 3000 nM unless otherwise noted

Row | SMILES | active / inactive (inhibition of testosterone-enhanced prostate weight) [3] | % Activity ([1]; 3000 nM) | other results
1 | CSCC(C)(O)c1cc2cc([N+](=O)[O-])c(C(F)(F)F)cc2[nH]1 (single isomer, unassigned) [compound 144] |  |  | % Activity ([1]; 3000 nM, 3 µM): 0%
2 | CCSCC(C)(O)c1[nH]c2cc(C(F)(F)F)c([N+](=O)[O-])cc2c1C#N (centres unmarked) [compound 242] | inactive |  | inhibition at 3 µM [2, 4]: 92%
3 | CCCSCC(C)(O)c1cc2cc(Cl)c(C(F)(F)F)cc2[nH]1 (racemic) [compound 196] | inactive | 13% | 
4 | CCSCC(C)(O)c1[nH]c2cc(C(F)(F)F)c([N+](=O)[O-])cc2c1C#N (single isomer, unassigned) [compound 247] | inactive |  | % Inhibition [2, 4]: 90%
5 | CCSCC(C)(O)c1[nH]c2cc(C(F)(F)F)c(C#N)cc2c1C (centres unmarked) [compound 219] | inactive |  | % Activity ([1]; 3000 nM, 3 µM): −3%
6 | CC(O)(CSc1ccccc1N)c1cc2cc(Cl)c(C(F)(F)F)cc2[nH]1 (centres unmarked) [compound 123] | inactive | −4% | % Activity ([1]; @ 8000 nM): 1 @ 8000 nM %
7 | CC(O)(CS(=O)(=O)CC(F)(F)F)c1[nH]c2cc([N+](=O)[O-])c(C(F)(F)F)cc2c1Cl (centres unmarked) [compound 207] | active |  | % Activity ([1]; 3000 nM, 3 µM): 1% and −1%
8 | CC(O)(CSc1ccc(N)cc1)c1cc2cc(Cl)c(C(F)(F)F)cc2n1S(C)(=O)=O (racemic) [compound 125] |  | −5% | 
9 | CCSCC(C)(O)c1[nH]c2cc(C(F)(F)F)c(Br)cc2c1C (centres unmarked) [compound 220] | inactive | −3% | inhibition at 3 µM ([1]; L929, L929 antagonist testing with R1881, 3000 nM): 103%
10 | CCSCC(C)(O)c1cc2cc(C#N)c(C(F)(F)F)cc2[nH]1 (centres unmarked) [Compound #218, 2-(2-Ethylsulfanyl-1-hydroxy-1-methyl-ethyl)-6-trifluoromethyl-1H-indole-5-carbonitrile] | inactive | 0% | 
11 | O=[N+]([O-])c1cc2cc(C3(O)CCSCC3)[nH]c2cc1C(F)(F)F [compound 17] | inactive |  | pIC50 [2]: < 5.82
12 | CCS(=O)(=O)CC(C)(O)c1[nH]c2cc(C(F)(F)F)c(C#N)cc2c1C (racemic) [compound 246] |  |  | inhibition at 3 µM [2, 4]: 70%
13 | CC(O)(CSCc1ccco1)c1cc2cc([N+](=O)[O-])c(C(F)(F)F)cc2[nH]1 (racemic) [compound 198] | inactive | 7% | 
14 | CCS(=O)(=O)CC(C)(O)c1cc2cc(C#N)c(C(F)(F)F)cc2n1C (racemic) [compound 240] | inactive | 0% | 
15 | CC(O)(CS(=O)(=O)CC(F)(F)F)c1cc2cc([N+](=O)[O-])c(C(F)(F)F)cc2[nH]1 (racemic) [compound 208] | active | 1% | 
16 | CC[S+]([O-])CC(C)(O)c1cc2cc(C(F)(F)F)c([N+](=O)[O-])cc2[nH]1 (mixture of isomers) [compound 230] | active | 0% | 
17 | CCSCC(C)(O)c1[nH]c2cc(C(F)(F)F)c([N+](=O)[O-])cc2c1C (racemic) [compound 221] | inactive | −1% | 
18 | CSC(C)(O)c1cc2cc([N+](=O)[O-])c(C(F)(F)F)cc2[nH]1 (racemic) [compound 267] | inactive |  | % Activity ([1]; 3000 nM, 3 µM): −5% and 0%
19 | CN(C)c1ccc(SCC(C)(O)c2cc3cc(Cl)c(C(F)(F)F)cc3[nH]2)cc1 (centres unmarked) [compound 124] | inactive | −4% | 
20 | CSCCC(C)(O)c1cc2cc(Cl)c(C(F)(F)F)cc2[nH]1 (racemic) [compound 51] | inactive | 2% | 
21 | CC[S+]([O-])CC(O)c1cc2cc([N+](=O)[O-])c(C(F)(F)F)cc2[nH]1 (mixture of isomers) [compound 180] | inactive | 2% | 
22 | CCSCC(O)(CC)c1cc2cc(C#N)c(C(F)(F)F)cc2[nH]1 (centres unmarked) [Compound #223] | active |  | % Activity ([1]; @ 8000 nM): 0 @ 8000 nM %
23 | CC(O)(CSCC(F)(F)F)c1cc2cc(C#N)c(C(F)(F)F)cc2[nH]1 (racemic) [compound 211] |  | −1% | 
